Reference: ChEMBL document CHEMBL1201862, “PubChem BioAssay data set” (2004)
The source made the active and inactive calls.

Key:
[1] = molecular target: Intestinal-type alkaline phosphatase (Homo sapiens, UniProt P09923); assay: Dose Response confirmation of uHTS hits from a small molecule inhibitors of human intestinal alkaline phosphatase via a luminescent assay. [Related pubchem assays (depositor defined):AID2544, AID2574]; assay type: functional
[2] = Late stage results from the probe development effort to identify inhibitors of the protein methylesterase PME-1: Luminescence-based counterscreen assay to identify cytotoxic compounds.; assay type: functional
[3] = molecular target: Acylamino-acid-releasing enzyme (Homo sapiens, UniProt P13798); assay: PME-1 inhibitor potency by in-gel ABPP, dose response, selectivity assay for PME-1 inhibitor project, cell lysate, mouse brain cytosol, FP-rhodamine, panel member APEH Assay Panel member description: Inhibition of N-acylaminoacyl-peptide hydrolase (APEH) (anti-target) (AID 2366)
Chain of Acylamino-acid-releasing enzyme (P13798 whole entry): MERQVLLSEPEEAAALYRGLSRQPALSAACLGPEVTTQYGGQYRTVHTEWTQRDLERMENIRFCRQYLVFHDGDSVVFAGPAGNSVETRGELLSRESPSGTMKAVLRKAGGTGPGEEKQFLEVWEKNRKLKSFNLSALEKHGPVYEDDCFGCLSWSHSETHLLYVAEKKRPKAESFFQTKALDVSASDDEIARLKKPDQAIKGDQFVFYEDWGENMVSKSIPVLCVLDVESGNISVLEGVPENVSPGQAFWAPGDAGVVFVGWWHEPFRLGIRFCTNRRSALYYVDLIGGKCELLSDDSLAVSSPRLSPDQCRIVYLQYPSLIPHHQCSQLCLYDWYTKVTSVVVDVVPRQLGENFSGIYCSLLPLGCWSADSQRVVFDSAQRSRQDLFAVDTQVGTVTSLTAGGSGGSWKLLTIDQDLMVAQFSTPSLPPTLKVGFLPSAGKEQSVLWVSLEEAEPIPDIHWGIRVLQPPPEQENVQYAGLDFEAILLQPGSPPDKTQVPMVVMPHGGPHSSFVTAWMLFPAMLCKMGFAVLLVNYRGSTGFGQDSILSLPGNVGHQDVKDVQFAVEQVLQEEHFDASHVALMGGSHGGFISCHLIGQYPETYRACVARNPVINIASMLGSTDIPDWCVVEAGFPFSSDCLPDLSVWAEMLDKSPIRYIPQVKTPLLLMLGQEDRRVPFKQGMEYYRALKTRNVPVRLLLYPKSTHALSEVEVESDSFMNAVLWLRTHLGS

[4] = growth suppression of beta-catenin-knockout colon cells, dose response, cell-based, HCT116, human colon tumor (AID 1045); assay type: functional;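 also: HCT116 colon tumor cells with beta catenin knocked out; cells exposed to compound for 60 hours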
[5] = growth suppression of PTEN-null colon cells, dose response, cell-based, HCT116 PTEN knockout (AID 1047); assay type: functional;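 also: HCT116 colon tumor cells with PTEN knocked out; cells exposed to compound for 60 hours before readout; potency for loss of cell viability measured by luminescence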
[6] = molecular target: G-protein coupled receptor 35 (Homo sapiens, UniProt Q9HC97); assay: GPR35 antagonists blocking zaprinast-driven arrestin recruitment, primary screen, imaging, U2OS, beta-arrestin-GFP, zaprinast agonist (AID 2058); assay type: functional;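 also: antagonist potency meaning inhibition of agonist-induced arrestin redistribution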
Protein RecA = molecular target: T1, Protein RecA (Mycobacterium tuberculosis, UniProt P9WHJ3); assay: Fluorescence Cell-Free Homogeneous Dose Retest to Identify Inhibitors of RecA-Intein Splicing Activity. [Related pubchem assays (depositor defined):AID2097, AID2223, AID489010, AID492950]; assay type: functional
T1 sequence (P9WHJ3 whole entry): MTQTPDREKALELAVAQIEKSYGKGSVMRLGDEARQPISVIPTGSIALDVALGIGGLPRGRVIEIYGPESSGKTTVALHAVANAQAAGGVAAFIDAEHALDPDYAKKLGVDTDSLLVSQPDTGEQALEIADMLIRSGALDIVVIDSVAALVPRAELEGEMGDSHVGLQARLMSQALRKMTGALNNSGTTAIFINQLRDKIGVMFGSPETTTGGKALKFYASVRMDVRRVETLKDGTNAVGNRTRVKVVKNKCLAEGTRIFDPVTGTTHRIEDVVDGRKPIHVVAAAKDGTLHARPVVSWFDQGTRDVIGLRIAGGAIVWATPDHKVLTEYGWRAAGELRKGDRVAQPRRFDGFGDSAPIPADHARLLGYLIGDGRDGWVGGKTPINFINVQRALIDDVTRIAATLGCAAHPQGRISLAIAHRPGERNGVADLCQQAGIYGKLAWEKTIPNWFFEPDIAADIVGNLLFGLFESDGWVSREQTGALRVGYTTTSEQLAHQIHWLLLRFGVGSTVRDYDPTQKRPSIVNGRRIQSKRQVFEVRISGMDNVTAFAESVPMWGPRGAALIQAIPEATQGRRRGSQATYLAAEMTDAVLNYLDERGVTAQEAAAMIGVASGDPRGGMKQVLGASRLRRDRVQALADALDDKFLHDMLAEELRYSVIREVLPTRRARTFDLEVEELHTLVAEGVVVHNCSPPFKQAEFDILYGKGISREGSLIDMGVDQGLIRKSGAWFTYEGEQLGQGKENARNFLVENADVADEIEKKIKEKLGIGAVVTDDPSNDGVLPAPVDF

INS1 = assay: beta cell apoptosis inhibitors, cytokine rescue, dose response, luminescence, retest (AID 449756); assay type: functional, cell-based; conditions: Rattus norvegicus;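 also: cell death triggered by IL-1 beta plus TNF-alpha plus IFN-gamma mixture; protective hits raise ATP signal compared with cytokine alone wells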
BJ = assay: cytotoxicity toward Ras-transformed BJeLR fibroblasts, dose response, cell-based, alamar blue fluorescence, cherrypicked samples (AID 2631); assay type: functional; conditions: Homo sapiens;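 also: confirmatory dose-response assay in RAS-dependent BJ fibroblasts engineered with TERT, LT and ST, with cytotoxicity read by fluorescence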
[7] = molecular target: T2, Replicative DNA helicase DnaB (Mycobacterium tuberculosis, UniProt P9WMR3); assay: DnaB intein splicing inhibitors, dose response, biochemical, cell-free fluorescence (AID 449749); assay type: functional
T2 sequence (P9WMR3 whole entry): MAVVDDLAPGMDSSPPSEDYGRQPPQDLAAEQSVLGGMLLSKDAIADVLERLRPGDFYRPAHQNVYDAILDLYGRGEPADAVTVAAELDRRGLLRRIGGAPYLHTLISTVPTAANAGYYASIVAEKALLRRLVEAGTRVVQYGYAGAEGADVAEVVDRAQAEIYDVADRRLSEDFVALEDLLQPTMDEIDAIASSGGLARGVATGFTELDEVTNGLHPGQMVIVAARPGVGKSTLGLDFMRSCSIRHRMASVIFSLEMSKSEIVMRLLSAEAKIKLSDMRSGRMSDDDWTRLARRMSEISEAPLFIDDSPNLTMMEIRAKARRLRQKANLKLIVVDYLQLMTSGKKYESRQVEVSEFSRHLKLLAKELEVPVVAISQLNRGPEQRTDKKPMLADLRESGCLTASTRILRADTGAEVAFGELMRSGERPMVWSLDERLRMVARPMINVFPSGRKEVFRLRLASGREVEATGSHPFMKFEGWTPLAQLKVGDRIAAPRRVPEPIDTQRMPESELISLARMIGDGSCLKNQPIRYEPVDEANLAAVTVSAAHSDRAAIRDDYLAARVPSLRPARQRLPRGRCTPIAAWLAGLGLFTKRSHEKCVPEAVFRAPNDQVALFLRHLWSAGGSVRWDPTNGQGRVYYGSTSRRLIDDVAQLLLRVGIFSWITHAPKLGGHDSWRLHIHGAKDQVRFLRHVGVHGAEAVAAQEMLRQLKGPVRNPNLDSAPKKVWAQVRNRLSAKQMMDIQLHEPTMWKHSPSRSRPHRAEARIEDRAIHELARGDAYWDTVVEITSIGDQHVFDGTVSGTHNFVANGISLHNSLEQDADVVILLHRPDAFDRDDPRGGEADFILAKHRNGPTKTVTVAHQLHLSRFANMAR

Paired box protein Pax-8 = Paired box protein Pax-8 (Homo sapiens, UniProt Q06710); assay: inhibitors of PAX8-driven TPO luciferase reporter, dose response, RMG-I cells, cherry-pick (AID 687027); assay type: functional, cell-based;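 also: luciferase reporter driven by Pax8 target thyroperoxidase promoter measured by SteadyGlo luminescence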
Chain of Paired box protein Pax-8 (Q06710 whole entry): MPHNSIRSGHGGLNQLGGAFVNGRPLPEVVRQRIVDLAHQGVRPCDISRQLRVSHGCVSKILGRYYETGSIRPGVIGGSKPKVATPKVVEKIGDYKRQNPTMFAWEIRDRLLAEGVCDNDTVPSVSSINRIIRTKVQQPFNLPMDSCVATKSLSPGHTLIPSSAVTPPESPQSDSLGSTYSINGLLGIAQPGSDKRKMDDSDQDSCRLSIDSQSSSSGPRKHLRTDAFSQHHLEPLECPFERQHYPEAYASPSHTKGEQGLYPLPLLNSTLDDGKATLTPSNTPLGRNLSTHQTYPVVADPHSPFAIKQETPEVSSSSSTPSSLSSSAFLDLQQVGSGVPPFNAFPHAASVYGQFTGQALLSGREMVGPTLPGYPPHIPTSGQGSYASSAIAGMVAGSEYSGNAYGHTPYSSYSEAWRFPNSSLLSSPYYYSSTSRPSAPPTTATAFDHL

[8] = molecular target: T3, Mannose-6-phosphate isomerase (Homo sapiens, UniProt P34949); assay: PMI enzyme inhibitors, confirmation, biochemical, fluorescence intensity (AID 1535)
T3 sequence (P34949 whole entry): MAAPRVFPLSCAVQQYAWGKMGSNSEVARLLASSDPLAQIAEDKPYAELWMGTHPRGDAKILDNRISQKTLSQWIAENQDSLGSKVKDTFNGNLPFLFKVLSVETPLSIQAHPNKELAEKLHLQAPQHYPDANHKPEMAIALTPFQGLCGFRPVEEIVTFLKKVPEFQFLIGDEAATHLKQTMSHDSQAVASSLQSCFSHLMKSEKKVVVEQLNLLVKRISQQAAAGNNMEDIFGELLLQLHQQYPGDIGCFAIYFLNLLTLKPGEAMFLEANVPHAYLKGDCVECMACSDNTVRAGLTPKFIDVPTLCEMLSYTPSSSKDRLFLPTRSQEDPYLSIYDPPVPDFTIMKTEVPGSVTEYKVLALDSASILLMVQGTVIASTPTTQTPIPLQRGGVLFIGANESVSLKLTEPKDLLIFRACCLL

Phosphomannomutase 2 = Phosphomannomutase 2 (Homo sapiens, UniProt O15305); assay: Counter screen SAR assay for PMM2 inhibitors via a fluorescence intensity assay. [Related pubchem assays (depositor defined):AID1545, AID1574]
Chain of Phosphomannomutase 2 (O15305 whole entry): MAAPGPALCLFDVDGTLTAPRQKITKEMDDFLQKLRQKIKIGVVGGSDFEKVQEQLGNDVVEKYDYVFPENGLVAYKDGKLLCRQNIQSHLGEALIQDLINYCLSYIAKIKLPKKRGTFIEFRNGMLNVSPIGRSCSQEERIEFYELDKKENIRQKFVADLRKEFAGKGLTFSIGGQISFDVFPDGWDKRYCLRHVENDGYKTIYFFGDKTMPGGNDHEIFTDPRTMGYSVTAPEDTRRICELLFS

[9] = molecular target: Phosphoethanolamine/phosphocholine phosphatase (Homo sapiens, UniProt Q8TCT1); assay: SAR assay for compounds that inhibit PHOSPHO1. [Related pubchem assays (depositor defined):AID1545, AID1565, AID1574]
Chain of Phosphoethanolamine/phosphocholine phosphatase (Q8TCT1 whole entry): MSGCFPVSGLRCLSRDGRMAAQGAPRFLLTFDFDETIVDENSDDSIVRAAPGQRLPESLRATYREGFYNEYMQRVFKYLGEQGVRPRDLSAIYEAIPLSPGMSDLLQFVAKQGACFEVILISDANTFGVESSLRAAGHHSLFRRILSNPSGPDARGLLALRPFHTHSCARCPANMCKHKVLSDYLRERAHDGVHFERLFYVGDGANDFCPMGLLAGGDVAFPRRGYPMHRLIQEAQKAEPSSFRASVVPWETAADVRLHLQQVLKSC

[10] = molecular target: T4, Neuropeptides B/W receptor type 1 (Homo sapiens, UniProt P48145); assay: GPR7 antagonist potency, late-stage follow-up, cell-based, fluorescence, dose response (AID 463251); assay type: functional
T4 sequence (P48145 whole entry): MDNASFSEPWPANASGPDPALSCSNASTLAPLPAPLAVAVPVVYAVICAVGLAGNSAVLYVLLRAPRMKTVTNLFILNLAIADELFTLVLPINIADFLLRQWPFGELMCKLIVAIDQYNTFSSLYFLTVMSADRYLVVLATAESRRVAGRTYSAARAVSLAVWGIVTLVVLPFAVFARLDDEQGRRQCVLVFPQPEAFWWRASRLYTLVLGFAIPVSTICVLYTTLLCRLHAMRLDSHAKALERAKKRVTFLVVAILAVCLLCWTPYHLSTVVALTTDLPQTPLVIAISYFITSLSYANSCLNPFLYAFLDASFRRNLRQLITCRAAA

[11] = molecular target: Melanin-concentrating hormone receptor 1 (Homo sapiens, UniProt Q99705); assay: Late-stage fluorescence-based counterscreen for antagonists of the G-protein coupled receptor 7 (GPR7): cell-based dose response assay to identify antagonists of the melanin-concentrating hormone receptor 1 (MCHR1). [Related pubchem assays (depositor defined):AID1861, AID1880, AID1952, AID2148, AID2251, AID2257, AID485339]; assay type: functional;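 also: stimulated with 30 nM MCH peptide agonist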
Chain of Melanin-concentrating hormone receptor 1 (Q99705 whole entry): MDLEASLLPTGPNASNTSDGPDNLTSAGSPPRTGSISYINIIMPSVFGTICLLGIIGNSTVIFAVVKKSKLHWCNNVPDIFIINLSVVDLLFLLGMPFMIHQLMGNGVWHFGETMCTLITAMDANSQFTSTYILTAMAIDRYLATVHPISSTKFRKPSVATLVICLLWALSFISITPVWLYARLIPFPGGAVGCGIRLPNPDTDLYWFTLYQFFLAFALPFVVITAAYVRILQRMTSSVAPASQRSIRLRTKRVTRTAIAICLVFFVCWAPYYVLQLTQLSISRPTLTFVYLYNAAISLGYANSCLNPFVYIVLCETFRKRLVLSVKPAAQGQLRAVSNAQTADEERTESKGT

[12] = Shn3 3'UTR reporter inhibitors, dose response, cell-based, Clone20 osteoblasts, firefly luciferase, cherry-picked (AID 624132); assay type: functional;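 also: firefly luciferase luminescence from reporter carrying the Shn3 3'UTR in osteoblasts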
[13] = HepG2 cell cytotoxicity, dose response, cytotoxicity control for Shn3 inhibitor project, CellTiter-Glo, cherry-picked (AID 624134); assay type: functional, cell-based
[14] = control 3'UTR Renilla luciferase suppression, dose response, counter-screen for Shn3 inhibitor project, cell-based, Clone20-Shn3RL, cherry-picked (AID 624133); assay type: functional
Beta-galactosidase = Beta-galactosidase (Escherichia coli, UniProt Q8VNN2); assay: beta-galactosidase enzyme inhibitors and activators, dose response, artefact control for CCR6 antagonist project, biochemical, E. coli enzyme, set 3 (AID 504712); assay type: functional
[15] = microbe, parasite or virus in culture; assay type: functional; conditions: Mycobacterium tuberculosis
[16] = molecular target: Eukaryotic translation initiation factor 4E (Mus musculus, UniProt P63073); assay: eIF4E–eIF4G protein interaction inhibitors, dose response, biochemical, TR-FRET (AID 855); assay type: functional;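 also: potency for disrupting eIF4E binding to eIF4GI seen as loss of FRET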
Chain of Eukaryotic translation initiation factor 4E (P63073 whole entry): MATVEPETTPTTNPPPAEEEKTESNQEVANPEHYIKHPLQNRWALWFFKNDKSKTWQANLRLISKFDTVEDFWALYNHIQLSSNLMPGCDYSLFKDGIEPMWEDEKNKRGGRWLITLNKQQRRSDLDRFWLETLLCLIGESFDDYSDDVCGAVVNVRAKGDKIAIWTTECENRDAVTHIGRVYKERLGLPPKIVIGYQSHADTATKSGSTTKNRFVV

Genome polyprotein = Genome polyprotein (Hepatitis C virus, UniProt Q2Q167); assay: HCV core protein dimerization inhibitors, dose response, biochemical, TR-FRET (AID 2159); design: species or system Hepacivirus hominis;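 also: blocks dimerization of HCV core protein measured by TR-FRET between tagged core106 pairs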
Chain of Genome polyprotein (Q2Q167 whole entry): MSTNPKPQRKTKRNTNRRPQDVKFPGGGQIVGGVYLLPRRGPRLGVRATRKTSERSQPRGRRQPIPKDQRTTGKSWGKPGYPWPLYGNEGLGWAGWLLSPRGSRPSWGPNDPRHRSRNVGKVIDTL

Protein Rev = Protein Rev (Human immunodeficiency virus type 1 group M subtype B (isolate HXB2)(HIV-1), UniProt P04618); assay: inhibitors of Rev binding to RRE RNA, dose response, biochemical, fluorescence polarization, HIV-1 (AID 434976); design: species or system Human immunodeficiency virus 1
Chain of Protein Rev (P04618 whole entry): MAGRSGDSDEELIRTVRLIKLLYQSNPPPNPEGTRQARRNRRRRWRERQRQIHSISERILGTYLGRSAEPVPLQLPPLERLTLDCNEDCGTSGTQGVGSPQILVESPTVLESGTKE

[17] = molecular target: Female germline-specific tumor suppressor gld-1 (Caenorhabditis elegans, UniProt Q17339); assay: inhibitors of GLD-1 binding to TGE RNA, dose response, biochemical, fluorescence polarization, C. elegans (AID 2802);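 also: fluorescence polarization of labeled TGE RNA bound by purified gld-1 protein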
Chain of Female germline-specific tumor suppressor gld-1 (Q17339 whole entry): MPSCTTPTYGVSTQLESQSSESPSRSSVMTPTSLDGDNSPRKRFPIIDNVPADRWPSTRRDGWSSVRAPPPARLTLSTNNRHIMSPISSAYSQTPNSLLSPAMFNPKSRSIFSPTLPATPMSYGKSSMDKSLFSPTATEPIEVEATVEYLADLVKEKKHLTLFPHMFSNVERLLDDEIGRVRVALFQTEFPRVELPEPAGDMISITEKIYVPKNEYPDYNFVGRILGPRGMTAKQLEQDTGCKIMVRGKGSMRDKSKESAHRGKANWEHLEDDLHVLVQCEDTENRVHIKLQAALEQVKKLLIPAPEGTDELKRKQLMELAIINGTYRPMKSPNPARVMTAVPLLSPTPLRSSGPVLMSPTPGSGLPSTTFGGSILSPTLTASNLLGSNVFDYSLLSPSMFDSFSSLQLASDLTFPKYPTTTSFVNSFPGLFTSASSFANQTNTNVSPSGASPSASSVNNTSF

[18] = molecular target: G-protein coupled receptor 55 (Homo sapiens, UniProt Q9Y2T6); assay: GPR55 agonists via beta-arrestin recruitment, primary screen, imaging, U2OS cells, beta-arrestin-GFP redistribution (AID 1961); assay type: functional
Chain of G-protein coupled receptor 55 (Q9Y2T6 whole entry): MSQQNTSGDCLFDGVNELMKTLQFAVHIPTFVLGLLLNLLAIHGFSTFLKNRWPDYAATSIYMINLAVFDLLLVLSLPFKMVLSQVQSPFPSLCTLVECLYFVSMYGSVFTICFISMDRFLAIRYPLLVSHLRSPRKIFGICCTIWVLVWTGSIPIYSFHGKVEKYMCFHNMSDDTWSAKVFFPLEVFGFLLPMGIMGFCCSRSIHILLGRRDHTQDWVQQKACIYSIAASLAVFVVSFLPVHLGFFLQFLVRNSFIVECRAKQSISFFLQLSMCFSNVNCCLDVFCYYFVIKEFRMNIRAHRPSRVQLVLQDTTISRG

[19] = molecular target: Eukaryotic translation initiation factor 4H (Homo sapiens, UniProt Q15056); assay: eIF4H inhibition in translation initiation, SAR follow-up (AID 435011); assay type: functional
[20] = molecular target: Polyadenylate-binding protein 1 (Homo sapiens, UniProt P11940); assay: PABP inhibition in translation initiation, SAR follow-up (AID 435018); assay type: functional
Chain of Polyadenylate-binding protein 1 (P11940 whole entry): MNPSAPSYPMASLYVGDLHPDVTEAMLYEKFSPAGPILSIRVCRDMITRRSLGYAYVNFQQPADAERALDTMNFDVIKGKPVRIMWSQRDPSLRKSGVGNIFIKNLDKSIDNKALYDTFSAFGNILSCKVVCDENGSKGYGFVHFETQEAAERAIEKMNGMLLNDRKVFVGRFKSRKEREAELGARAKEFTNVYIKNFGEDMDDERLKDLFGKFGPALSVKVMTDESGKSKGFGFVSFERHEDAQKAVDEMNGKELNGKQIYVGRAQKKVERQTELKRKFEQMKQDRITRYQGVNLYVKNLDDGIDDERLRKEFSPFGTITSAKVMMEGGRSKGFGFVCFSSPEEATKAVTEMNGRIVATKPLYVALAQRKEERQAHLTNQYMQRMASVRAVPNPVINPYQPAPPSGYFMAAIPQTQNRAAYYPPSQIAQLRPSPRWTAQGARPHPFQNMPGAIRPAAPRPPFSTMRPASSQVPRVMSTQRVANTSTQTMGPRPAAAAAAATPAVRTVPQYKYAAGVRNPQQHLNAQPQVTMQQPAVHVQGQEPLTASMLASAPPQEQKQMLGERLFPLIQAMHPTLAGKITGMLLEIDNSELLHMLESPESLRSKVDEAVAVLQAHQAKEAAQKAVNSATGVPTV

Vero [21] = assay: cytotoxicity of synthesized analogs in Vero 76, SAR follow-up, cytotoxicity control for West Nile virus antiviral project, Vero 76 cells (AID 2414); assay type: functional; conditions: Chlorocebus sabaeus
Vero [22] = assay: West Nile virus CPE inhibition, SAR follow-up, cell-based, synthesized analogs (AID 2238); assay type: functional; conditions: Chlorocebus sabaeus
Vero [23] = assay: Vero E6 cell cytotoxicity, SAR follow-up, cytotoxicity control for West Nile virus antiviral project, synthesized analogs (AID 2244); assay type: functional; conditions: Chlorocebus sabaeus
Vero [24] = assay: cytotoxicity of synthesized analogs in Vero cells, SAR follow-up, cytotoxicity control for West Nile virus antiviral project, cell-based, set II (AID 2402); assay type: functional; conditions: Chlorocebus sabaeus

Chain of Intestinal-type alkaline phosphatase (P09923 whole entry): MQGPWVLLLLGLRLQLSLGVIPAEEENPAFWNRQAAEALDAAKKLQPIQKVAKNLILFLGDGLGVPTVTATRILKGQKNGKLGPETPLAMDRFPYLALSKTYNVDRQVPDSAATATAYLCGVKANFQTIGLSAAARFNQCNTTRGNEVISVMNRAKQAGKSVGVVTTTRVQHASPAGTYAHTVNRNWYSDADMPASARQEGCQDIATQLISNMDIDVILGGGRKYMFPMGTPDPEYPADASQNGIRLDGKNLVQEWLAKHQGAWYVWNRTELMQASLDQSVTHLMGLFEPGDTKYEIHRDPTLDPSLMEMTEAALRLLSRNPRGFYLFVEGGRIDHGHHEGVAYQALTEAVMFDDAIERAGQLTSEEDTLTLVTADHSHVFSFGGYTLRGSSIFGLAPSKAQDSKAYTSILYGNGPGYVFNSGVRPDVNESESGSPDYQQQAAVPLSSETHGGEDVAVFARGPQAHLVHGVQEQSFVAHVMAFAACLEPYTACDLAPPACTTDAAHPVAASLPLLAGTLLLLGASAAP

Structure (SMILES): O=C(NCCCN1CCOCC1)c1ccc2c(c1)N(Cc1ccc(Cl)cc1)C(=O)c1ccccc1[S+]2[O-] (configuration not stated)
- IC50 [1]: > 100 µM (inactive)

Structure (SMILES): N#C/C(=C\c1cccn1S(=O)(=O)c1cccc([N+](=O)[O-])c1)S(=O)(=O)c1ccc(F)cc1
- CC50 [2]: 100 µM (active)
- IC50 [3]: > 50 µM (inactive)

Structure (SMILES): O=S(=O)(/C(=C/c1ccc(C(F)(F)F)cc1)c1nc2ccccc2[nH]1)c1ccccc1
- EC50 [4]: 1.68 µM (active)
- EC50 [5]: 1.89 µM (active)
- IC50 [6]: > 32 µM (inactive)
- EC50 (Protein RecA): 5.85 µM (active)
- AC50 (INS1): 4.43 µM (active)
- EC50 (BJ): 0.601 µM (active)
- AC50 [7]: 3.54 µM (active)
- AC50 (Paired box protein Pax-8): 2.82 µM (active)

Structure (SMILES): O=c1c2ccccc2sn1-c1cc(S(=O)(=O)N2CCOCC2)ccc1N1CCCCC1
- IC50 [8]: 39.2 µM (active)
- IC50 (Phosphomannomutase 2): > 100 µM (inactive)
- IC50 [9]: 39.4 µM (inactive)

Structure (SMILES): COc1ccc(Oc2c(Cl)cnn(-c3cccc(C#N)c3)c2=O)cc1
- IC50 [10]: 2.8 µM (active)
- IC50 [11]: 14.2 µM (inactive)

Structure (SMILES): O=C1CC(Sc2nnc(-c3ccccc3O)o2)C(=O)N1c1ccccc1 (configuration not stated)
- AC50 [12]: 12.9 µM (active)
- AC50 [13]: 45.2 µM (active)
- AC50 [14]: 17.8 µM (active)
- IC50 (Beta-galactosidase): > 66.6 µM (inactive)

Structure (SMILES): CC1=CC(=O)c2c(O)ccc(O)c2C1=O
- CC50 [15]: 12.9 µM (active)
- IC50 [16]: 10.3 µM (active)
- IC50 (Genome polyprotein): > 49.8 µM (not active)
- IC50 (Protein Rev): > 75.4 µM (not active)
- IC50 [17]: 5.58 µM (active)

Structure (SMILES): COC(=O)c1c(NC(=O)CN(c2ccccc2)S(C)(=O)=O)sc2c1CCCC2
- EC50 [18]: 0.577 µM (active)

Structure (SMILES): Cc1cc(Cl)ccc1NC(=O)C1CCN(C(=O)c2cccs2)CC1
- IC50 [19]: > 100 µM (inactive)
- IC50 [20]: > 100 µM (inactive)

Structure (SMILES): O=C(CSc1nc2ccccc2c(=O)n1-c1ccc(Cl)c(Cl)c1)Nc1ccc2c(c1)CCC2
- CC50 (Vero [21]): > 66.6 µM (active)
- IC50 (Vero [22]): 17.3 µM (active)
- CC50 (Vero [23]): > 40 µM (active)
- CC50 (Vero [24]): > 100 µM (active)
